Entries after “also recorded” stand apart in the source; their conditions may differ.
Tests used:
[1] = tested on: various yeast strains and filamentous fungi (strains A-M); experiment: Antifungal activity over the whole panel (summary of MIC data); type: cell-based, Candida and Aspergillus strains; conditions: over the fungal strains tested, based on MIC data of Table 1
In short: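 Yeasts (A–J) followed CLSI M27-A3 broth microdilution at 2–4×10^3 CFU/mL in RPMI 1640 with DMSO <1.25%. Aspergillus (K–M) followed CLSI M38-A2 with spores at 5×10^5 CFU/mL, 48 h at 35 °C. MIC is the lowest concentration giving complete growth inhibition (MIC-0), tested in triplicate.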

[2] = tested on: human bronchus normal cell line BEAS-2B; experiment: In vitro cytotoxicity assay (resazurin); type: cell-based; conditions: 24 h
Experimental: The human bronchus normal cell line BEAS-2B (ATCC CRL-9609) and the human lung carcinoma cell line A549 (ATCC CRL-185) were kind gifts from the laboratories of Dr. Matthew S. Gentry (University of Kentucky, Lexington, KY, USA) and Dr. David K. Orren (University of Kentucky, Lexington, KY, USA). The mammalian cells were grown in Dulbecco's Modified Eagle's Medium (DMEM) (from ATCC) with 10% fetal bovine serum (FBS) (from ATCC) and 1% Pen/Strep (from ATCC). Cell lines were cultured at 37° C. with 5% CO2 and passaged by trypsinization with 0.05% trypsin:0.53 mM EDTA (from ATCC). Cell confluency was determined by using a Nikon Eclipse TS100 microscope (Minato, Tokyo, Japan).
Cytotoxicity assays were performed as previously described with slight modifications. A549 and BEAS-2B cells were first thawed from stocks and grown. The confluent cells were transferred to a 96-well microtiter plates at density of 3000 cells/well. The 96-well plates were incubated at 37° C. with 5% CO2 overnight. […] The stock solutions were serially diluted in 1.5 mL eppendorf tubes to achieve concentrations of 31-0.12 mg/mL. 1 μL of these 1000× compound stock solutions was then added to 999 μL of DMEM medium in 1.5 mL eppendorf tubes to obtain final concentrations of 31-0.12 μg/mL. […] The 96-well plates were further incubated for 24 h at 37° C. with 5% CO2. To evaluate cell survival, each well was treated with 10 μL (25 mg/L) of resazurin sodium salt (Sigma-Aldrich, St. Louis, MO, USA) and incubated for another 6 h. Metabolically active cells can convert resazurin to the highly fluorescent dye, resorufin, and be detected at A560 excitation and A590 emission using a SpectraMax M5 plate reader (Molecular Devices, San Jose, CA, USA). […] The percentage survival rates were calculated by using the following formula: % cell survival=[(fluorescence of sample)−(fluorescence of background)]×100/[(fluorescence of negative control)−(fluorescence of background)]. Experiments were done in duplicate.

[3] = tested on: C. albicans ATCC 64124 (strain B) biofilms; experiment: Biofilm disruption assay (XTT reduction); type: cell-based, Candida albicans
Experimental: Biofilms are complex communities of one or more species of microorganisms encased in extracellular polymeric substances and attached to not only a solid surface but also to each other. Because of their complex, matrix-like nature, antifungal agents are often unable to reach the pathogens embedded in these networks. […] This increase reflected some resistance of Candida biofilms against the bishydrazone 17c.
Biofilm disruption assays were performed to assess the effectiveness of compound 17c against sessile yeast cells for two representative yeast strains, C. albicans ATCC 10231 (strain A) and C. albicans ATCC 64124 (strain B). VOR was used as a positive control. Biofilm assays were performed in 96-well plates using XTT [2,3-bis(2-methoxy-4-nitro-5-sulfophenyl)-2H-tetrazolium-5-carboxanilide] to measure the viability of the biofilm as previously described. An overnight culture of the yeast cells was grown at 35° C. in YPD medium with shaking at 200 rpm. The overnight culture was diluted in RPMI 1640 medium to an OD600 between 0.12 and 0.15 to make a working stock. The working stock was transferred to 96-well plates in 100 μL aliquots, leaving one column empty for the sterile controls. […] 80 μL of liquid from each well was transferred to new plates, which were then read for absorbance at 450 nm with a SpectraMax M5 plate reader (Molecular Devices, Sunnyvale, CA, USA). […]

Row | increase of SMIC values compared to planktonic MIC value [3] | Compound | antifungal activity (in words) [1] | toxicity (in words) ([2]; BEAS-2B at 15.5 μg/mL) | toxicity (in words) ([2]; BEAS-2B at 31 μg/mL)
1 |  | COc1ccc(N/N=C/c2ccc(-c3ccc(/C=N/Nc4ccc(OC)cc4)cc3)cc2)cc1 [Compound 15b] | good activity against the majority of the fungal strains tested | non-toxic | 
2 |  | Fc1ccc(N/N=C/c2ccc(-c3cccc(/C=N/Nc4ccc(F)cc4F)c3)cc2)c(F)c1 [Compound 20a] | overall antifungal activity against all the strains tested; also recorded: good activity against the majority of the fungal strains tested | non-toxic | 
3 |  | Fc1ccc(N/N=C/c2ccc(-c3cccc(/C=N/Nc4ccc(F)cc4)c3)cc2)cc1 [Compound 17a] | good activity against the majority of the fungal strains tested |  | non-toxic
4 | 4- to 8 fold | C/C(=N\Nc1ccc(F)cc1)c1ccc(-c2ccc(/C(C)=N/Nc3ccc(F)cc3)cc2)cc1 [Compound 17c, 4,4′-bis((E)-1-(2-(4-fluorophenyl)hydrazono)ethyl)-1,1′-biphenyl] |  | non-toxic | 
5 |  | COc1ccc(N/N=C/c2ccc(-c3cccc(/C=N/Nc4ccc(OC)cc4)c3)cc2)cc1 [Compound 15a] |  | non-toxic | 
6 |  | Fc1cccc(N/N=C/c2ccc(-c3cccc(/C=N/Nc4cccc(F)c4)c3)cc2)c1 [Compound 12a] | good activity |  | 
